# Test results published in patent publication US20230348583A1, “TGFbeta1-BINDING IMMUNOGLOBULINS AND USE THEREOF” (SCHOLAR ROCK, INC., priority 2016, published 2023).
# Tests used:
# rats = details: Frazier et al. 2007; cited from earlier work
# female F344/NHsd rats = assay: Rat toxicity study; details: for Aortic root: Hemorrhage, Minimal / Aortic root: Infiltrate, mixed cell, Minimal / Atrium: Hemorrhage, Minimal / Atrium: Hyperplasia, endothelium, Minimal / Atrium: Infiltrate, mixed cell, Minimal / Atrium: Infiltrate, mixed cell, Slight / Coronary artery: Necrosis with inflammation, Slight / Heart valves: Valvulopathy, Minimal / Heart valves: Valvulopathy, Moderate / Heart valves: Valvulopathy, Slight / Myocardium: Degeneration/necrosis, Minimal / Myocardium: Degeneration/necrosis, Slight / Myocardium: Hemorrhage, Slight / Myocardium: Infiltrate, mixed cell, Slight: animals affected (n=5)
# Method: Animal body weight was determined at days 1, 3, and 7 of the dosing phase. Animals were sacrificed at day 8 and necropsies performed.
# rats and dogs = details: Stauber et al. 2014; cited from earlier work
# human cancer patients = details: in vivo; cited from earlier work
# cynomolgus macaques = details: cynomolgus monkey, in vivo; cited from earlier work
compound,measurement,setting,value
O=C(NC1CCOCC1)c1ccc(-c2cc(-c3c[nH]nc3-c3ccccn3)ccn2)cc1 [GW788388],Bone toxicity in rats,rats,induced physeal dysplasia
c1ccc(-c2nn3c(c2-c2ccnc4cc(OCCN5CCOCC5)ccc24)CCC3)nc1 [LY2109761],Body weight during the dosing phase,female F344/NHsd rats; 200 mg/kg or 300 mg/kg,decreased body weight
same,Animals found dead,"female F344/NHsd rats; 200 mg/kg oral gavage once daily, n=5, day 7",Two
same,Mortality,"female F344/NHsd rats; 300 mg/kg oral gavage once daily, all animals (n=5), days 3, 6, or 7",sacrificed in a moribund condition or found dead
same,"Heart, Absolute Weight",female F344/NHsd rats; LY2109761 200 mg/kg/day,112 percentage control mean value
same,"Heart, Body Weight Ratio",female F344/NHsd rats; LY2109761 200 mg/kg/day,132 percentage control mean value
same,"Heart, Brain Weight Ratio",female F344/NHsd rats; LY2109761 200 mg/kg/day,113 percentage control mean value
same,"Aortic root: Hemorrhage, Minimal",female F344/NHsd rats; LY2109761 200 mg/kg/day,1
same,"Aortic root: Infiltrate, mixed cell, Minimal",female F344/NHsd rats; LY2109761 200 mg/kg/day,1
same,"Atrium: Hemorrhage, Minimal",female F344/NHsd rats; LY2109761 200 mg/kg/day,1
same,"Atrium: Hyperplasia, endothelium, Minimal",female F344/NHsd rats; LY2109761 200 mg/kg/day,1
same,"Atrium: Infiltrate, mixed cell, Minimal",female F344/NHsd rats; LY2109761 200 mg/kg/day,2
same,"Atrium: Infiltrate, mixed cell, Slight",female F344/NHsd rats; LY2109761 200 mg/kg/day,0
same,"Coronary artery: Necrosis with inflammation, Slight",female F344/NHsd rats; LY2109761 200 mg/kg/day,0
same,"Heart valves: Valvulopathy, Minimal",female F344/NHsd rats; LY2109761 200 mg/kg/day,1
same,"Heart valves: Valvulopathy, Moderate",female F344/NHsd rats; LY2109761 200 mg/kg/day,1
same,"Heart valves: Valvulopathy, Slight",female F344/NHsd rats; LY2109761 200 mg/kg/day,3
same,"Myocardium: Degeneration/necrosis, Minimal",female F344/NHsd rats; LY2109761 200 mg/kg/day,0
same,"Myocardium: Degeneration/necrosis, Slight",female F344/NHsd rats; LY2109761 200 mg/kg/day,1
same,"Myocardium: Hemorrhage, Slight",female F344/NHsd rats; LY2109761 200 mg/kg/day,1
same,"Myocardium: Infiltrate, mixed cell, Slight",female F344/NHsd rats; LY2109761 200 mg/kg/day,0
same,"Aortic root: Hemorrhage, Minimal",female F344/NHsd rats; LY2109761 300 mg/kg/day,0
same,"Aortic root: Infiltrate, mixed cell, Minimal",female F344/NHsd rats; LY2109761 300 mg/kg/day,0
same,"Atrium: Hemorrhage, Minimal",female F344/NHsd rats; LY2109761 300 mg/kg/day,2
same,"Atrium: Hyperplasia, endothelium, Minimal",female F344/NHsd rats; LY2109761 300 mg/kg/day,3
same,"Atrium: Infiltrate, mixed cell, Minimal",female F344/NHsd rats; LY2109761 300 mg/kg/day,3
same,"Atrium: Infiltrate, mixed cell, Slight",female F344/NHsd rats; LY2109761 300 mg/kg/day,1
same,"Coronary artery: Necrosis with inflammation, Slight",female F344/NHsd rats; LY2109761 300 mg/kg/day,1
same,"Heart valves: Valvulopathy, Minimal",female F344/NHsd rats; LY2109761 300 mg/kg/day,2
same,"Heart valves: Valvulopathy, Moderate",female F344/NHsd rats; LY2109761 300 mg/kg/day,0
same,"Heart valves: Valvulopathy, Slight",female F344/NHsd rats; LY2109761 300 mg/kg/day,3
same,"Myocardium: Degeneration/necrosis, Minimal",female F344/NHsd rats; LY2109761 300 mg/kg/day,1
same,"Myocardium: Degeneration/necrosis, Slight",female F344/NHsd rats; LY2109761 300 mg/kg/day,1
same,"Myocardium: Hemorrhage, Slight",female F344/NHsd rats; LY2109761 300 mg/kg/day,0
same,"Myocardium: Infiltrate, mixed cell, Slight",female F344/NHsd rats; LY2109761 300 mg/kg/day,1
same,Animals with abnormally-shaped sternum,"female F344/NHsd rats; each of 200 mg/kg and 300 mg/kg groups, n=5",four
same,Clear fluid in the thoracic cavity,"female F344/NHsd rats; one animal at 300 mg/kg found dead on Day 3, with enlarged thymus (edema)",2.5 mL
same,Heart weight,female F344/NHsd rats; ≥200 mg/kg,Increased heart weights
same,Microscopic heart valve findings,female F344/NHsd rats; ≥200 mg/kg,"exhibited heart valve findings (i.e., valvulopathy)"
Cc1cccc(-c2nn3c(c2-c2ccnc4ccc(C(N)=O)cc24)CCC3)n1 [LY2157299],Organ toxicities on chronic (≥3 months) administration,rats and dogs,caused multiple organ toxicities
Fresolimumab: a pan TGFβ antibody capable of neutralizing all human isoforms of TGFβ,Most notable adverse reaction in clinical trials,human cancer patients,induction of cutaneous keratoacanthomas and/or squamous cell carcinomas
same,Toxicity after multiple administrations,cynomolgus macaques,"induce an epithelial hyperplasia of the gingiva, bladder, and of the nasal turbinate epithelium"
